The target in test [1] is T1, Serine hydroxymethyltransferase, cytosolic (Homo sapiens, UniProt P34896).
T1 sequence (P34896 whole entry): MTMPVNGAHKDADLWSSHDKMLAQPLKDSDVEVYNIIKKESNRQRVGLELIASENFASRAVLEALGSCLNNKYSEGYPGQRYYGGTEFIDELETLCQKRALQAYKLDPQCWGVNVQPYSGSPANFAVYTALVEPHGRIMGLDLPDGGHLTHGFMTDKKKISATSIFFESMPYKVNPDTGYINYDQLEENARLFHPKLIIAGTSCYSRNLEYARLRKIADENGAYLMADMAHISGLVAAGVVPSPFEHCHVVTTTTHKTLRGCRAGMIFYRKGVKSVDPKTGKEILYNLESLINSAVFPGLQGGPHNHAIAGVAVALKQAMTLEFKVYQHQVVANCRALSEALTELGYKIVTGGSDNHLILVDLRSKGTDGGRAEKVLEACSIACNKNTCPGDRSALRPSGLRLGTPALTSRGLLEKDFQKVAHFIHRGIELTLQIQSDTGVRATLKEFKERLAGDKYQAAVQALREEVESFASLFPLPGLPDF
The test can be described thus: Mixed-type inhibition of human recombinant Serine hydroxymethyltransferase, cytosolic measured by Y-axes intercepts of mixed-type inhibition against compound concentration by spectrophotometry.

The target in test [2] is T1, Serine hydroxymethyltransferase, cytosolic. The test can be described thus: Binding affinity to human recombinant Serine hydroxymethyltransferase, cytosolic by isothermal titration calorimetry. Background: ITC needs no label: the signal is the heat of the interaction.
The target is the same in test [3]. The test can be described thus: Inhibition of human recombinant Serine hydroxymethyltransferase, cytosolic measured by slope intercepts of mixed-type inhibition against compound concentration by spectrophotometry.
Test [4] has the same target. In words: Competitive inhibition of human recombinant Serine hydroxymethyltransferase, cytosolic by spectrophotometry.

Turning to `Nc1nc2[nH]cc(CCc3ccc(C(=O)N[C@@H](CCC(=O)O)C(=O)O)cc3)c2c(=O)[nH]1` [PEMETREXED], the values for the Ki in test [1], in test [3] and in test [4] were 186 µM, 33 µM and 19.1 µM, respectively. Further, the Kd (commonly a measure of binding affinity in units of concentration) in test [2] was 16.9 µM.

The record behind these values is ChEMBL document CHEMBL1773038, “In silico and in vitro validation of serine hydroxymethyltransferase as a chemotherapeutic target of the antifolate drug pemetrexed” (Eur J Med Chem, 2011).
